Test results from the CheMixHub drug solubility set.

Assay: xn = mol fraction of the nth substance listed, in the solute-free solvent

O=[N+]([O-])c1cc[nH]n1 + CO + O
solubility (g/100 g solution)
Conditions	283.15 K	288.15 K	293.15 K	298.15 K	303.15 K	308.15 K	313.15 K	318.15 K	323.15 K
x2 = 0.05881	0.466	0.609	0.793	1.01	1.33	1.69	2.27	2.94	3.85
x2 = 0.1233	0.564	0.712	0.875	1.08	1.38	1.73	2.29	2.92	3.79
x2 = 0.1942	0.925	1.17	1.41	1.73	2.13	2.68	3.46	4.36	5.66
x2 = 0.2727	1.15	1.42	1.77	2.15	2.73	3.42	4.48	5.7	7.33
x2 = 0.3599	1.39	1.69	2.12	2.57	3.22	4.01	5	6.42	8.34
x2 = 0.4576	1.45	1.83	2.28	2.77	3.46	4.3	5.39	6.94	8.92
x2 = 0.5675	1.51	1.85	2.27	2.8	3.45	4.33	5.46	6.85	8.68
x2 = 0.6923	1.5	1.84	2.25	2.74	3.41	4.19	5.28	6.7	8.39
x2 = 0.835	1.44	1.82	2.25	2.79	3.66	4.99	6.1	7.64	9.23

Cc1ccc(Nc2nccc(N(C)c3ccc4c(C)n(C)nc4c3)n2)cc1S(N)(=O)=O + CC#N + CCCO
solubility (g/100 g solution)
Conditions	288.15 K	293.15 K	298.15 K	303.15 K	308.15 K	313.15 K	318.15 K	323.15 K	328.15 K
x2 = 0.2679	0.0118	0.0186	0.0265	0.0356	0.0456	0.0555	0.066	0.0779	0.0924
x2 = 0.4939	0.0196	0.031	0.0432	0.057	0.0716	0.0875	0.104	0.123	0.145
x2 = 0.6871	0.0177	0.0276	0.0399	0.0523	0.0687	0.0849	0.102	0.12	0.143
x2 = 0.8541	0.0117	0.0175	0.0245	0.0326	0.0408	0.0514	0.0625	0.075	0.0903

CC(=O)Nc1ccc(OC(=O)c2ccccc2OC(C)=O)cc1 + CN(C)C=O + O
solubility (g/100 g solution)
Conditions	278.15 K	283.15 K	288.15 K	293.15 K	298.15 K	303.15 K	308.15 K	313.15 K	318.15 K
x2 = 0.02666	0.00846	0.0119	0.016	0.0222	0.0297	0.0399	0.0526	0.0698	0.0891
x2 = 0.05806	0.0473	0.0628	0.084	0.109	0.141	0.18	0.232	0.291	0.365
x2 = 0.09556	0.235	0.295	0.376	0.471	0.571	0.703	0.866	1.05	1.27
x2 = 0.1412	0.633	0.777	0.947	1.16	1.39	1.68	1.97	2.35	2.77
x2 = 0.1978	1.3	1.55	1.82	2.17	2.52	2.94	3.41	3.9	4.5
x2 = 0.27	2.25	2.63	3.06	3.49	4.01	4.6	5.22	5.91	6.7
x2 = 0.3652	3.47	3.96	4.51	5.08	5.72	6.42	7.14	7.91	8.74
x2 = 0.4965	4.8	5.32	5.97	6.58	7.24	7.99	8.71	9.48	10.3
x2 = 0.6893	6.08	6.62	7.2	7.86	8.46	9.14	9.88	10.5	11.3
